The text below walks through data of ChEMBL document CHEMBL1134574, “Synthesis and characterization of non-steroidal ligands for the glucocorticoid receptor: selective quinoline derivatives with prednisolone-equivalent functional activity” (J Med Chem, 2001).

Some results are limits rather than exact numbers.

Assay [1] has as its target T1, Androgen receptor (Homo sapiens, UniProt P10275).
T1 sequence (P10275 whole entry): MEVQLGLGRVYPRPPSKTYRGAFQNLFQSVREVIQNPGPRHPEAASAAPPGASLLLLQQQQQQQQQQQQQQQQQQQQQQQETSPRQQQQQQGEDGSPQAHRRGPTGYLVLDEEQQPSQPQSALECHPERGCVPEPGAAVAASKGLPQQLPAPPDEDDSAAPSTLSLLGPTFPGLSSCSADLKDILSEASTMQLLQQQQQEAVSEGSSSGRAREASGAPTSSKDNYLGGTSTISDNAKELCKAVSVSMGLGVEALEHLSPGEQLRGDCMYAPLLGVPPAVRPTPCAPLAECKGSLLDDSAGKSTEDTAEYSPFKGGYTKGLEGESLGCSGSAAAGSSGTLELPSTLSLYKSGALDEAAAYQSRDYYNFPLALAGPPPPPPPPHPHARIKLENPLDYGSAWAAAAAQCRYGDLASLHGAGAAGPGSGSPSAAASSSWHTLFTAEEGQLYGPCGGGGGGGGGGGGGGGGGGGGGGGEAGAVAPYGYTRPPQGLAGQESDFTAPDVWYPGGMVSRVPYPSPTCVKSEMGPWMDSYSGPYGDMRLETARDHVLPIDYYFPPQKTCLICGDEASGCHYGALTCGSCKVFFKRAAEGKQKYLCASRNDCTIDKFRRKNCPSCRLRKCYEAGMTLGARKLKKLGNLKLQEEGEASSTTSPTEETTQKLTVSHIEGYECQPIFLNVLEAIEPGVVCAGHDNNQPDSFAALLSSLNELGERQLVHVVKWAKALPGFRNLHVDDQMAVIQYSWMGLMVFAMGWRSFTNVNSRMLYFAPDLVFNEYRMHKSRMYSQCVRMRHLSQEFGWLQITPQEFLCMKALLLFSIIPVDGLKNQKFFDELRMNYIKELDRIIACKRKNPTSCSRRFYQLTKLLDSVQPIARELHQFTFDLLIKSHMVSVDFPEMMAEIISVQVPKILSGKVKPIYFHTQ
Put plainly: Binding affinity for androgen receptor.

In assay [2] the target is Estrogen receptor (Homo sapiens, UniProt Q92731+P03372). As to the kind of experiment: Binding affinity for estrogen receptor. Format: protein assay.
Assay [3] deals with T2, Glucocorticoid receptor (Rattus norvegicus) (UniProt P06536).
T2 sequence (whole entry): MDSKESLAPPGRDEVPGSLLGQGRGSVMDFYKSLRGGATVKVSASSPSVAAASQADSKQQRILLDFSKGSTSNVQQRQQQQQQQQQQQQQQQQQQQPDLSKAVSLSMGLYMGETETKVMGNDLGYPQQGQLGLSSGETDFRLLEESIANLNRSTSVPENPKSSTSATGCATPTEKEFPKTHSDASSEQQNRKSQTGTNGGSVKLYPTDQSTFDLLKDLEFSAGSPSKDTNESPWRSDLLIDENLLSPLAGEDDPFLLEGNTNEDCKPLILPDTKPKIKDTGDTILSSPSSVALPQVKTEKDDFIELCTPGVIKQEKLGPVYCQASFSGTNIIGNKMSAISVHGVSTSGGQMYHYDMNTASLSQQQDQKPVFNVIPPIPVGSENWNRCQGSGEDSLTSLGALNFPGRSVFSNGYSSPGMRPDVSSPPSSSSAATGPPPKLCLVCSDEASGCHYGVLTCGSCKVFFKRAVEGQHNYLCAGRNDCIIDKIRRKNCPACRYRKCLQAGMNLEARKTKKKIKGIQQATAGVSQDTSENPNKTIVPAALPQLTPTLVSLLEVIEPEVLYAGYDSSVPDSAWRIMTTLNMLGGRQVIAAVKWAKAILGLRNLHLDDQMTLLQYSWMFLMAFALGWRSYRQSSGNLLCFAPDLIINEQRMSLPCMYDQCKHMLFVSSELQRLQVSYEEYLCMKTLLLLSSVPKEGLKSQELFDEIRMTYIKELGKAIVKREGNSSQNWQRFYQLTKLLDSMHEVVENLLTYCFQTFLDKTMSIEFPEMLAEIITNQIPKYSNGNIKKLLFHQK
Put plainly: Anti-asthmatic effect as eosinophil influx in rat lung model. It is filed as functional.

One may read the Ki as the dissociation constant of the complex between target and ligand, obtained from inhibition or displacement. Low values mean higher affinity, high ones lower affinity. One may read the ED50 as the midpoint of the dose-response relation. A low value points to greater potency. Regarding `COc1cccc2c1-c1ccc3c(c1C(c1cccc(OCSC)c1)O2)C(C)=CC(C)(C)N3` (stereo not drawn), the inhibition constant Ki is 3.12 µM in assay [1] and > 1 µM in assay [2]. Also, it took a dose of 2.8 mg/kg to reach the 50% effect level in assay [3] (ED50).
